Assay results: patent publication US9023789B2, “Amylin analogs and pharmaceutical compositions thereof” (Novo Nordisk A/S, priority 2012, dated 2015)

What was measured:
[1] = target: T1, human amylin 3(a) receptor (human calcitonin receptor + RAMP-3) in BHK570 cells (Homo sapiens, UniProt O60896+P30988); assay: ASSAY (II)a functional assay, human amylin receptor (CRE luciferase); format: cell-based
T1 construct: expressed in transfected cells
Excerpt: 1. Luciferase Assay Outline
Activation of calcitonin and amylin (coexpression of calcitonin receptor and receptor activity modifying proteins (RAMP)) receptors lead to increased intracellular concentrations of cAMP. Consequently, transcription is activated by promoters containing multiple copies of the cAMP response element (CRE). It is thus possible to measure amylin activity by the use of a CRE luciferase reporter gene introduced into BHK cells also expressing calcitonin or amylin receptors.
2. Construction of Calcitonin (a)- and Amylin 3(a)-Receptor/CRE-Luc Cell Line.
The cell line was further transfected with RAMP-3, using standard methods. This turns the calcitonin receptor into an amylin 3(a) receptor. Methotrexate, Neomycin, and Hygromycin are selection markers for luciferase, the calcitonin receptor, and RAMP-3, respectively.
To perform activity assays, BHK calcitonin (a) receptor- or amylin 3(a)-receptor/CRE-luc cells were seeded in white 96 well culture plates at a density of about 20.000 cells/well. […] After incubation overnight at 37° C. and 5% CO2, the growth medium was replaced by 50 μl/well assay medium (DMEM (without phenol red), Glutamax™, 10% FBS, and 10 mM Hepes, pH 7.4). Further, 50 μl/well of standard or sample in assay buffer were added. After 3 hours incubation at 37° C. and 5% CO2, the assay medium with standard or sample were removed and replaced by 100 μl/well PBS. Further, 100 μl/well LucLite™ was added. The plates were sealed and incubated at room temperature for 30 minutes. Finally, luminescence was measured on a TopCounter (Packard) in SPC (single photon counting) mode.

[2] = target: T2, rat calcitonin receptor (Rattus norvegicus, UniProt P32214); assay: ASSAY (VIII) binding to the rat calcitonin receptor; settings: Table 7, read-out: rCTR bind IC50
T2 construct: expressed in transfected cells; host or cells: BHK tk'ts 13 (transient, FuGENE 6), membranes
T2 sequence (P32214 25-479 isoform P32214-2 limits assumed): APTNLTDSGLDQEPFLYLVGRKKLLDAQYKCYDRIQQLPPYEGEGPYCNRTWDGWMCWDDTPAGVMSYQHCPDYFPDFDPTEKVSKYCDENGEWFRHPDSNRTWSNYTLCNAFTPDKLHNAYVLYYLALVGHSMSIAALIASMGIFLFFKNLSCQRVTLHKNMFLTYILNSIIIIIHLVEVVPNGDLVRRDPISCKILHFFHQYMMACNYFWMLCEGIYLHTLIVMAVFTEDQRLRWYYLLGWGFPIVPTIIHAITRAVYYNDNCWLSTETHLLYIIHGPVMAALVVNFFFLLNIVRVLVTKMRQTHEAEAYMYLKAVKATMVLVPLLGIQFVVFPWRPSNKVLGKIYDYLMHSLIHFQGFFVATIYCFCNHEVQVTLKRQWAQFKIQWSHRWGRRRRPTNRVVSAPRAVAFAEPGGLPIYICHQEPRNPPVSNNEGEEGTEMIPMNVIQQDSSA
Experimental: Assay (VIII)—Determination of Binding to the Rat Calcitonin Receptor
(§1) The BHK tk′ts 13 cells were transiently transfected with rat calcitonin receptor using FuGENE® 6 (Roche), according to the manufacturer's recommendations. Cells were grown in DMEM with 10% FBS and 1% Pen/Strep. Approximately 48 hours after transfection, the cells were harvested and membranes were prepared.

[3] = target: T3, rat amylin receptor (rat calcitonin receptor + rat RAMP 3) (Rattus norvegicus, UniProt P32214+Q9JJ73); assay: ASSAY (VI) binding to the rat amylin receptor
T3 construct: expressed in transfected cells; host or cells: BHK tk'ts 13 (transient, FuGENE 6), membranes
T3 sequence (P32214 25-479 isoform P32214-2 limits assumed): T2 sequence (P32214 25-479 isoform P32214-2 limits assumed)
T3 sequence (Q9JJ73 23-147 partner): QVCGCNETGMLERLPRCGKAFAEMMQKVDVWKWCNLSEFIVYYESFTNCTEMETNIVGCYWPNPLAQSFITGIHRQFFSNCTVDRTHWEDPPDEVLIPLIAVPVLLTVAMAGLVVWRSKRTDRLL
Experimental: as §1, with “Assay (VI)—Determination of the Binding to the Rat Amylin Receptor […] The” for “The”, “Cells were grown in DMEM with 10% FBS and 1% Pen/Strep.” left out

[4] = target: T4, human amylin receptor (membranes from Amylin 3(a)/CRE-luc cells) (Homo sapiens, UniProt O60896+P30988); assay: ASSAY (V) binding to the human amylin receptor (SPA, 125I-rat amylin);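 also: competition binding of cell membranes (35 ng/µL) mixed with SPA beads in 384-well plates at 40 µL total volume, read by scintillation counting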
T4 construct: expressed in transfected cells
T4 sequence (P30988 25-474): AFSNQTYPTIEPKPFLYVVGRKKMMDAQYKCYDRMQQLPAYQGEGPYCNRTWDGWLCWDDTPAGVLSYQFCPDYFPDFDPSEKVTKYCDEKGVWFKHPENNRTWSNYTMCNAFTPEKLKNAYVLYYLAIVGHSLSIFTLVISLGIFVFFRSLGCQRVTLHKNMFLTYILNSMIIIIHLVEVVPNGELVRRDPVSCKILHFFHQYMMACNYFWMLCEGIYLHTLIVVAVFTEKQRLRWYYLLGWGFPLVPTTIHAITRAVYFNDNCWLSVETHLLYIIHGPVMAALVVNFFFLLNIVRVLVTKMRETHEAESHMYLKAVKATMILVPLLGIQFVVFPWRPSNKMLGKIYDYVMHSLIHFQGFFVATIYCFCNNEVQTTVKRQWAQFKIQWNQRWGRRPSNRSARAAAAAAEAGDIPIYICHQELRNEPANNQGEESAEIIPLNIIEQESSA
T4 sequence (O60896 24-148 partner): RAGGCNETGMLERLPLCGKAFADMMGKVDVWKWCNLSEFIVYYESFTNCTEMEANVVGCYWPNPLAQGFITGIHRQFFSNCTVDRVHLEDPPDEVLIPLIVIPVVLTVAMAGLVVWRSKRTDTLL

[5] = system: Sprague Dawley (SD) rats; assay: ASSAY (I) efficacy testing on appetite (food intake) using an ad libitum fed rat model; format: in vivo; settings: rat, 30 nmol/kg
Excerpt: Sprague Dawley (SD) rats from Taconic Europe, Denmark are used for the experiments. The rats have a body weight 200-250 g at the start of experiment. The rats arrive at least 10-14 days before start of experiment to allow acclimatization to experimental settings. During this period the animals are handled at least 2 times. After arrival rats are housed individually for one week in a reversed light/dark phase (meaning that lights are off during daytime and on during nighttime) for two weeks. Since rats are normally active and eat their major part of their daily food intake during the dark period, rats are dosed in the morning right before lights are turned off. This set-up results in the lowest data variation and highst test sensitivity. The experiment is conducted in the rats' home cages and rats have free access to food and water throughout the acclimatization period and the experiment period. Each dose of derivative is tested in a group of 5-8 rats. A vehicle group of 6-8 rats is included in each set of testing. Rats are dosed once according to body weight with a 0.01-3 mg/kg solution administered intraperitoneally (ip), orally (po) or subcutaneously (sc). The time of dosing is recorded for each group. After dosing, the rats are returned to their home cages, where they then have access to food and water. The food consumption is recorded individually continuously by online registration or manually every hour for 7 hours, and then after 24 h and sometimes 48 h. At the end of the experimental session, the animals are euthanized.
The individual data are recorded in Microsoft excel sheets. Outliers are excluded after applying the Grubbs statistical evaluation test for outliers, and the result is presented graphically using the GraphPad Prism program.

With `CC[C@H](C)[C@H](NC(=O)[C@H](C)NC(=O)CNC(=O)[C@H](Cc1ccccc1)NC(=O)[C@H](CC(N)=O)NC(=O)[C@@H]1CCCN1C(=O)[C@H](CO)NC(=O)[C@H](CO)NC(=O)[C@H](Cc1c[nH]cn1)NC(=O)[C@H](CCCNC(=N)N)NC(=O)[C@H](CC(C)C)NC(=O)[C@H](Cc1ccccc1)NC(=O)[C@@H](CC(=O)O)NC(=O)[C@H](C)NC(=O)[C@H](CC(C)C)NC(=O)[C@H](CCCNC(=N)N)NC(=O)[C@H](CCC(N)=O)NC(=O)[C@@H](NC(=O)[C@H](C)NC(=O)[C@@H]1CSSC[C@H](NC(=O)[C@@H](N)CCCCNC(=O)CC[C@H](NC(=O)CC[C@H](NC(=O)CCCCCCCCCCCCCCCCCCC(=O)O)C(=O)O)C(=O)O)C(=O)N[C@@H](CC(N)=O)C(=O)N[C@@H]([C@@H](C)O)C(=O)N[C@@H](C)C(=O)N[C@@H]([C@@H](C)O)C(=O)N1)[C@@H](C)O)C(=O)N1CCC[C@H]1C(=O)N[C@@H](CO)C(=O)N[C@@H](CO)C(=O)N[C@H](C(=O)N[C@@H](CC(N)=O)C(=O)N[C@H](C(=O)NCC(=O)N[C@@H](CO)C(=O)N[C@@H](CCCNC(=N)N)C(=O)N[C@H](C(=O)N[C@@H](Cc1ccc(O)cc1)C(N)=O)[C@@H](C)O)C(C)C)[C@@H](C)O` [Example 131] the “Ratio hCT/hAmylin funct.” value ([1]; hCTR funct. EC50 divided by hAmylin-R funct. EC50) was 261.1, the “Ratio hCT/hAmylin funct.” value ([1]; hCTR funct. EC50 over hAmylin-R funct. EC50) was 261.1 and the “Ratio hCT/hAmylin funct.” value ([1]; human functional selectivity: hCTR funct. EC50 / hAmylin-R funct. EC50) was 261.1. For the same compound, the IC50 [2] was 536 nM, the IC50 ([3]; Table 7, binding to rat amylin receptor, read-out: rAmylin-R bind IC50) was 1.69 nM and the “Ratio rCT/rAmylin binding” value ([3]; Table 7, rat binding selectivity, rCTR IC50 / rAmylin-R IC50) was 316.7. For the same compound, the “Ratio rCT/rAmylin binding” value ([3]; Table 7a (preferred compounds), rat binding selectivity, rCTR IC50 / rAmylin-R IC50) was 316.7, the “Ratio rCT/rAmylin binding” value ([3]; ratio of rCTR bind IC50 to rAmylin-R bind IC50) was 316.7 and the “Ratio hCT/hAmylin binding” value ([4]; Table 5, selectivity, hCTR bind IC50 / hAmylin-R bind IC50) was 306.6. The “Ratio hCT/hAmylin binding” value ([4]; Table 5a, selectivity, hCTR bind IC50 / hAmylin-R bind IC50) was 306.6, the “Ratio hCT/hAmylin binding” value ([4]; Table 5b, selectivity, hCTR bind IC50 / hAmylin-R bind IC50) was 306.6 and the “Ratio hCT/hAmylin binding” value ([4]; Table 5c, selectivity, hCTR bind IC50 / hAmylin-R bind IC50) was 306.6. For the same compound, the “Ratio hCT/hAmylin binding” value ([4]; Table 7, human binding selectivity, included for comparison) was 306.6, the “Ratio hCT/hAmylin binding” value ([4]; Table 7a (preferred compounds), human binding selectivity, included for comparison) was 306.6 and the “Ratio hCT/hAmylin binding” value ([4]; ratio of human calcitonin receptor binding IC50 to human amylin receptor binding IC50) was 306.6. For the same compound, the “Food intake reduction 0-24 h 30 nmol/kg (%)” value ([5]; 0-24 h) was 17% and the “Food intake reduction 24-48 h 30 nmol/kg (%)” value ([5]; 24-48 h) was 14%.
